Experimental data as given in ChEMBL document CHEMBL6096654, “Allosteric inhibition of PTP1B by bromocatechol-chalcone derivatives” (Eur J Med Chem, 2025).
pIC50, pKd: −log10 of the molar value. Active and inactive are the calls of the source. The calls are words filed in the database; no cut-off is given here.

How the values were obtained:
C2C12 [1] = assay: Inhibition of insulin-resistance in insulin-resistant mouse C2C12 cells assessed as increase in insulin receptor phosphorylation pretreated for 24 hrs followed by compound washout and further addition of insulin measured after 20 mins by Western blot analysis; format: functional, cell-based; details: dose 0.625-2.5 µM
3T3-L1 [2] = assay: Inhibition of insulin-resistance in insulin-resistant mouse 3T3-L1 cells assessed as increase in AKT phosphorylation pretreated for 24 hrs followed by compound washout and further addition of insulin measured after 20 mins by Western blot analysis; format: functional, cell-based; details: dose 0.625-2.5 µM
[3] = target: T1, Tyrosine-protein phosphatase non-receptor type 1 (Homo sapiens, UniProt P18031); assay: Binding affinity to PTP1B (unknown origin) assessed as dissociation constant by SPR analysis
T1 sequence (P18031 whole entry): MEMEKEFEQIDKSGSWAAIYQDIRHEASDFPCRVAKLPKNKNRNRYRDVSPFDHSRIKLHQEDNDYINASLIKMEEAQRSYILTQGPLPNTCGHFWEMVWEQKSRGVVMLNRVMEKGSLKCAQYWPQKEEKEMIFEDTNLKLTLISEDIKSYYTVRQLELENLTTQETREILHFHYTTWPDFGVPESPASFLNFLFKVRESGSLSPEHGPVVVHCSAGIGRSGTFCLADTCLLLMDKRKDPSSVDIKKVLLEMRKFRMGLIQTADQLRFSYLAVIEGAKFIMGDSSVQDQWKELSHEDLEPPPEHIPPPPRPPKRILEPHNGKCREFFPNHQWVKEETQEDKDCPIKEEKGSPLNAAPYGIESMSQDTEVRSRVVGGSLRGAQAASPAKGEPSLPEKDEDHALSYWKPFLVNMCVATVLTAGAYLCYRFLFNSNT

[4] = target: T2, Tyrosine-protein phosphatase non-receptor type 2 (Homo sapiens, UniProt P17706); assay: Inhibition of TCPTP (unknown origin) using pNPP as substrate incubated for 30 mins by spectrophotometry
T2 sequence (P17706 whole entry): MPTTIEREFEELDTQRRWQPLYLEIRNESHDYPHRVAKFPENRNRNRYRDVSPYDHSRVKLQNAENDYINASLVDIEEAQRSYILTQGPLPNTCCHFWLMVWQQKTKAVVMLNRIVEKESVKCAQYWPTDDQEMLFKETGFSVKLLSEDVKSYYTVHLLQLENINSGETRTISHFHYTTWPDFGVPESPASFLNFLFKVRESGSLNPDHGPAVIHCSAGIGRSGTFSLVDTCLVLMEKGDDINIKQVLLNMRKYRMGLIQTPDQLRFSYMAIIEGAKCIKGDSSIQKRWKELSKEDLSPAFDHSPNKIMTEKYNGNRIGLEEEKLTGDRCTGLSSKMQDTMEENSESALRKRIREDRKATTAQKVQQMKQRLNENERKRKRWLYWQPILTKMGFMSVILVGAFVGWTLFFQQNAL

Mus musculus [5] = assay: Hypoglycemic activity in BKD db/db mouse assessed as increase in AKT phosphorylation in epididymal white adipose tissue at 40 to 80 mg/kg/day, po for 8 weeks by Western blot analysis; format: functional, organism-based; details: dose 40-80 mg/kg/day
HepG2 [6] = assay: Inhibition of insulin-resistance in insulin-resistant human HepG2 cells assessed as increase in AKT phosphorylation pretreated for 24 hrs followed by compound washout and further addition of insulin measured after 20 mins by Western blot analysis; format: functional, cell-based; details: dose 0.625-2.5 µM
Hepatocyte = assay: Inhibition of insulin-resistance in insulin-resistant C57BL/J mouse […] primary hepatocytes assessed as increase in AKT phosphorylation pretreated for 24 hrs followed by compound washout and further addition of insulin measured after 20 mins by Western blot analysis; format: functional, cell-based; details: dose 0.625-2.5 µM
Mus musculus [7] = assay: Hypoglycemic activity in BKD db/db mouse assessed as decrease in blood glucose level at 40 to 80 mg/kg/day, po qd for 3 to 4 weeks; format: functional, organism-based; details: dose 40-80 mg/kg/day, time 3-4 weeks
[8] = target: T3, Tyrosine-protein phosphatase non-receptor type 1 (Homo sapiens) (UniProt P18031); assay: Induction of thermal stabilization of PTP1B in human HepG2 cells at 2.5 u incubated for 6 hrs followed by heat exposure at 51 to 65 degreeC for 4 mins by CETSA; format: cell-based
T3 sequence (whole entry): T1 sequence (P18031 whole entry)

HepG2 [9] = assay: Inhibition of insulin-resistance in insulin-resistant human HepG2 cells assessed as increase in insulin receptor phosphorylation pretreated for 24 hrs followed by compound washout and further addition of insulin measured after 20 mins by Western blot analysis; format: functional, cell-based; details: dose 0.625-2.5 µM
Mus musculus [10] = assay: Hypoglycemic activity in BKD db/db mouse assessed as reduction in lipid droplet accumulation in liver at 40 to 80 mg/kg/day, po for 8 weeks by H and E staining based analysis; format: functional, organism-based; details: dose 40-80 mg/kg/day
Mus musculus [11] = assay: Hypoglycemic activity in BKD db/db mouse assessed as increase in insulin receptor phosphorylation in epididymal white adipose tissue at 40 to 80 mg/kg/day, po for 8 weeks by Western blot analysis; format: functional, organism-based; details: dose 40-80 mg/kg/day
3T3-L1 [12] = assay: Induction of glucose uptake in mouse 3T3-L1 cells cultured in low glucose medium containing compound for 24 hrs; format: functional, cell-based; details: dose 0.625-2.5 µmol/L
HepG2 [13] = assay: Induction of glucose uptake in human HepG2 cells cultured in low glucose medium containing compound for 24 hrs; format: functional, cell-based; details: dose 0.625-2.5 µmol/L
[14] = Acute toxicity in Kunming mouse assessed as change in cell morphology of spleen at 2000 mg/kg, po measured for 14 days by H and E staining based analysis; format: organism-based; details: in vivo, 336 h, time 14 day
[15] = Toxicity in BKD db/db mouse assessed as effect on subcutaneous fat weight at 40 to 80 mg/kg/day, po qd for 8 weeks; format: organism-based; details: in vivo, 1344 h, dose 40-80 mg/kg/day
C2C12 [16] = assay: Inhibition of insulin-resistance in insulin-resistant mouse C2C12 cells assessed as increase in AKT phosphorylation pretreated for 24 hrs followed by compound washout and further addition of insulin measured after 20 mins by Western blot analysis; format: functional, cell-based; details: dose 0.625-2.5 µM
[17] = Acute toxicity in Kunming mouse assessed as change in cell morphology of kidney at 2000 mg/kg, po measured for 14 days by H and E staining based analysis; format: organism-based; details: in vivo, 336 h, time 14 day
[18] = Inhibition of PTP1B N193A/K197A mutant (unknown origin) using pNPP as substrate incubated for 30 mins by spectrophotometry; set-up: species or system Homo sapiens
Mus musculus [19] = assay: Hypoglycemic activity in BKD db/db mouse assessed as increase in AKT phosphorylation in skeletal muscle at 40 to 80 mg/kg/day, po for 8 weeks by Western blot analysis; format: functional, organism-based; details: dose 40-80 mg/kg/day
[20] = Acute toxicity in Kunming mouse assessed as change in cell morphology of heart at 2000 mg/kg, po measured for 14 days by H and E staining based analysis; format: organism-based; details: in vivo, 336 h, time 14 day
Mus musculus [21] = assay: Hypoglycemic activity in BKD db/db mouse assessed as decrease in blood glucose level at 40 to 80 mg/kg/day, po for 6 weeks by OGTT method; format: functional, organism-based; details: dose 40-80 mg/kg/day
Mus musculus [22] = assay: Hypoglycemic activity in BKD db/db mouse assessed as increase in AKT phosphorylation in liver at 40 to 80 mg/kg/day, po for 8 weeks by Western blot analysis; format: functional, organism-based; details: dose 40-80 mg/kg/day
Mus musculus [23] = assay: Hypoglycemic activity in BKD db/db mouse assessed as decrease in blood glucose level at 40 to 80 mg/kg/day, po for 7 weeks followed by insulin injection by […] method; format: functional, organism-based; details: dose 40-80 mg/kg/day
[24] = Acute toxicity in Kunming mouse assessed as toxic effects at 2000 mg/kg, po measured for 14 days; format: organism-based; details: in vivo, 336 h, time 14 day

With CCOc1ccc(Oc2ccc(C(=O)/C=C/c3cc(O)c(O)c(Br)c3Br)cc2)cc1 the inhibition (C2C12 [1]) was “Dose-dependent-effect”, the inhibition (3T3-L1 [2]) was “Dose-dependent-effect” and the pKd [3] was 7.21. The pIC50 [4] was 4.80, the Activity (Mus musculus [5]) was “Active” and the inhibition (HepG2 [6]) was “Dose-dependent-effect”. The inhibition (Hepatocyte) was “Dose-dependent-effect”, the Activity (Mus musculus [7]) was “Active” and the Activity [8] was “Active”. For the same molecule, the inhibition (HepG2 [9]) was “Dose-dependent-effect”, the Activity (Mus musculus [10]) was “Active” and the Activity (Mus musculus [11]) was “Active”. The Activity (3T3-L1 [12]) was “Dose-dependent-effect”, the Activity (HepG2 [13]) was “Dose-dependent-effect” and the Activity [14] was “Non-toxic”. The Activity [15] was “Non-toxic”, the inhibition (C2C12 [16]) was “Dose-dependent-effect” and the Activity [17] was “Non-toxic”. For the same molecule, the pIC50 [18] was 4.83, the Activity (Mus musculus [19]) was “Active” and the Activity [20] was “Non-toxic”. For the same molecule, the Activity (Mus musculus [21]) was “Active”, the Activity (Mus musculus [22]) was “Active” and the Activity (Mus musculus [23]) was “Active”. For the same molecule, the Activity [24] was “Non-toxic”.
